# In ChEMBL document CHEMBL1201862, “PubChem BioAssay data set” (2004):
# Calls of active or inactive are those of the source.
# Legend:
# [1] = biological target: FAD-linked sulfhydryl oxidase ALR (Homo sapiens, UniProt P55789); test: ALR-catalysed DTT oxidation blockers – biochemical, H2O2 detection, luminescence, cherry-pick, dose response (AID 493248)
# [2] = biological target: T1, Corticotropin-releasing factor receptor 2/Corticotropin-releasing factor-binding protein (Homo sapiens, UniProt P24387+Q13324); test: Dose Response confirmation of uHTS hits for small molecule antagonists of the CRF-binding protein and CRF-R2 receptor complex.; assay type: functional; settings: read-out: IC50_Mean
# T1 sequence (Q13324 whole entry): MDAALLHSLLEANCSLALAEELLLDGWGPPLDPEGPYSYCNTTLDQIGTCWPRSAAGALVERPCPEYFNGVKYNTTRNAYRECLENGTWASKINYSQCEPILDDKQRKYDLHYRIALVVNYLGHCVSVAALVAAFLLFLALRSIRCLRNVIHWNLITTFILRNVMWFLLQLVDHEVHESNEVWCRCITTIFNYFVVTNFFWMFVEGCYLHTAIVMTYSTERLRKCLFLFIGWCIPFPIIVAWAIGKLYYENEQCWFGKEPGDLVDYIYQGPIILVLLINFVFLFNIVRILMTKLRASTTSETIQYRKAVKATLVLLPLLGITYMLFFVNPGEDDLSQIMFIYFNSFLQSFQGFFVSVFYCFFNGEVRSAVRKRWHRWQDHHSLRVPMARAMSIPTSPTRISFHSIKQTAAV
# T1 sequence (P24387 whole entry): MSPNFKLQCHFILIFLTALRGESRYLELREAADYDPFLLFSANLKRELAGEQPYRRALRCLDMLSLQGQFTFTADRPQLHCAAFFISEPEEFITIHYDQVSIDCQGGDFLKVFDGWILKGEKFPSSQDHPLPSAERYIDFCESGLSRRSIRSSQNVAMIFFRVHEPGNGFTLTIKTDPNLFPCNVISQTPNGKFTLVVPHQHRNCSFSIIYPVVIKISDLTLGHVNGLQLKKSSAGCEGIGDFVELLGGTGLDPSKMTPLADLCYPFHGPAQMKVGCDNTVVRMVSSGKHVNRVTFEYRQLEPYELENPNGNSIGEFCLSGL
# [3] = biological target: T1, Corticotropin-releasing factor receptor 2/Corticotropin-releasing factor-binding protein; test: activators of CRF receptor 2 with binding protein – uHTS hits, confirmation (AID 602473); assay type: functional; settings: read-out: EC50_Mean
# [4] = biological target: T2, Short transient receptor potential channel 4 (Mus musculus, UniProt Q9QUQ5); test: calcium entry via TRPC4 opening agents – cell-based, HEK293 TRPC4/mu-opioid, Fluo-4 calcium, dose response (AID 434937); assay type: functional
# T2 sequence (Q9QUQ5 whole entry): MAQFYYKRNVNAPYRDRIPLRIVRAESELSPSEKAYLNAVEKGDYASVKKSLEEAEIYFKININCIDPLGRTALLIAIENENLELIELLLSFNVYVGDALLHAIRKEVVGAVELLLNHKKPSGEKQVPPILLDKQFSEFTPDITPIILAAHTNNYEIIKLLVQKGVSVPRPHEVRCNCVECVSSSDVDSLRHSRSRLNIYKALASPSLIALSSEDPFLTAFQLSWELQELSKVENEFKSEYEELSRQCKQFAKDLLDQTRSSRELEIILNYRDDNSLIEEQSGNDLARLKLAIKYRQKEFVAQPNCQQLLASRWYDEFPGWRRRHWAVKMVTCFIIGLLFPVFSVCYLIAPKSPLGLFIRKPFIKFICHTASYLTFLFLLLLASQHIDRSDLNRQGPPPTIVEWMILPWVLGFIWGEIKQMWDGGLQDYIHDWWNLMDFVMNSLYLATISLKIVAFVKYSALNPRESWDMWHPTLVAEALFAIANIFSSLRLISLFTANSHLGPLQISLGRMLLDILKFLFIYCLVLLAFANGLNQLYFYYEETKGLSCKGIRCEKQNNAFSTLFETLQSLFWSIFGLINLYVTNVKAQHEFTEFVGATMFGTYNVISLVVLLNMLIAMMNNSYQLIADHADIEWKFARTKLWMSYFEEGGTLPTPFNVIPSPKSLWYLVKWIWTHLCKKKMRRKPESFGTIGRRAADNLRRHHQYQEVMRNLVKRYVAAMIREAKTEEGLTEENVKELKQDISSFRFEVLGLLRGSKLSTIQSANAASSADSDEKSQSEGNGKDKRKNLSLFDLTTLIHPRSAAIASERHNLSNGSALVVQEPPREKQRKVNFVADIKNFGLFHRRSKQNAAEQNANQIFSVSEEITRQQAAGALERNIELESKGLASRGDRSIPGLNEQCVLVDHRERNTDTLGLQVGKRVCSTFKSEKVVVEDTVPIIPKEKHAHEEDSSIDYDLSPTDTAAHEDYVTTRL
# Fatty acid synthase = Fatty acid synthase (Homo sapiens, UniProt P49327); test: inhibition of human FAS-TE enzyme activity – biochemical, kinetic fluorescence intensity, dose response (AID 624326); assay type: functional;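 also: rate of fluorescence rise from hydrolysis of a fluorogenic O-methyl fluorescein ester substrate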
# [5] = Trypanosoma cruzi growth suppression in host cells – NIH3T3 host cells, beta-gal luminescence, confirmation (AID 2044); assay type: functional, cell-based;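 also: intracellular parasites grown in NIH/3T3 mouse fibroblasts as host cells; luminescent beta-galactosidase reporter signal from transgenic T. cruzi replicating inside host cells; inhibitors lower the luminescence signal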
# [6] = NIH3T3 cell viability loss – ATP luminescence, mouse fibroblasts, counter-screen, dose response (AID 2010); assay type: functional, cell-based;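 also: cells exposed to compound for about 90 hours before reading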
# Leucine aminopeptidase = biological target: T3, Leucine aminopeptidase (Plasmodium falciparum 3D7, UniProt Q8IL11); test: P. falciparum M17LAP inhibitors, primary screen, biochemical, fluorogenic H-Leu-NHMec substrate, 1536-well (AID 1619); assay type: functional
# T3 sequence (Q8IL11 whole entry): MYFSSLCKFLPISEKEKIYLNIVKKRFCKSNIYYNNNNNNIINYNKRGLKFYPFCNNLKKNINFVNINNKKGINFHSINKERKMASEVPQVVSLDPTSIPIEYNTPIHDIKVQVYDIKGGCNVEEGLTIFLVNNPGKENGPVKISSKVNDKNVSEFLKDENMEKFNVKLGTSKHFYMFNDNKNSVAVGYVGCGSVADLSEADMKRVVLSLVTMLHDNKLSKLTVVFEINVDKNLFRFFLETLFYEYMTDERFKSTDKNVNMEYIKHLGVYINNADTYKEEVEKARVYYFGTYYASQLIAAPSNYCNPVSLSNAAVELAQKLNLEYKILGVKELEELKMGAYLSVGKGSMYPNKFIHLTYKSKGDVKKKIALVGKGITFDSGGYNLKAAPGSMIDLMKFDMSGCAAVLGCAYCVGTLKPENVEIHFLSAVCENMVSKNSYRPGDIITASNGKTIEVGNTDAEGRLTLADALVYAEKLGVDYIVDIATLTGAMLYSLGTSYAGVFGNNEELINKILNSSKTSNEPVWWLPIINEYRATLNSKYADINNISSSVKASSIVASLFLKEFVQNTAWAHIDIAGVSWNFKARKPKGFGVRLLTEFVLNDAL
# [7] = biological target: T4, Microphthalmia-associated transcription factor (Homo sapiens, UniProt O75030); test: reducers of TRPM1 reporter luminescence, concentration series – cell-based, SK-MEL-5, cherry-picked, set 3, MITF inhibitor project, dose response (AID 493073); assay type: functional;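 also: SK-MEL-5 melanoma cells with luciferase driven by the MITF target TRPM1 promoter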
# T4 sequence (O75030 whole entry): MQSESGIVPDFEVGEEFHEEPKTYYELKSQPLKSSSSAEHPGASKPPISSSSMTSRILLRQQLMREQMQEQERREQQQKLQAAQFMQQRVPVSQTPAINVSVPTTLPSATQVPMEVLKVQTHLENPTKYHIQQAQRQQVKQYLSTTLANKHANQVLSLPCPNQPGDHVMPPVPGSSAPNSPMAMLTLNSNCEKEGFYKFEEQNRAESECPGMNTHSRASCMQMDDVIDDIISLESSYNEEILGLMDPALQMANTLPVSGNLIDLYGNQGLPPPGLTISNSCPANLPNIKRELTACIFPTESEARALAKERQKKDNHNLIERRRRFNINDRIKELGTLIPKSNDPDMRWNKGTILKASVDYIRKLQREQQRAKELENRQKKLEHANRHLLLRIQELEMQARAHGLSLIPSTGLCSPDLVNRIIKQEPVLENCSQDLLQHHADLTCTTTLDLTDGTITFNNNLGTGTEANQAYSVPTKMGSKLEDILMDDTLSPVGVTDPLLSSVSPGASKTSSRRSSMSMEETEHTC
# [8] = biological target: T5, High affinity choline transporter 1 (Homo sapiens, UniProt Q9GZV3); test: human choline transporter blockers, potency – cell-based, 5-point CRC, membrane potential dye, dose response (AID 504840); assay type: functional
# T5 sequence (Q9GZV3 whole entry): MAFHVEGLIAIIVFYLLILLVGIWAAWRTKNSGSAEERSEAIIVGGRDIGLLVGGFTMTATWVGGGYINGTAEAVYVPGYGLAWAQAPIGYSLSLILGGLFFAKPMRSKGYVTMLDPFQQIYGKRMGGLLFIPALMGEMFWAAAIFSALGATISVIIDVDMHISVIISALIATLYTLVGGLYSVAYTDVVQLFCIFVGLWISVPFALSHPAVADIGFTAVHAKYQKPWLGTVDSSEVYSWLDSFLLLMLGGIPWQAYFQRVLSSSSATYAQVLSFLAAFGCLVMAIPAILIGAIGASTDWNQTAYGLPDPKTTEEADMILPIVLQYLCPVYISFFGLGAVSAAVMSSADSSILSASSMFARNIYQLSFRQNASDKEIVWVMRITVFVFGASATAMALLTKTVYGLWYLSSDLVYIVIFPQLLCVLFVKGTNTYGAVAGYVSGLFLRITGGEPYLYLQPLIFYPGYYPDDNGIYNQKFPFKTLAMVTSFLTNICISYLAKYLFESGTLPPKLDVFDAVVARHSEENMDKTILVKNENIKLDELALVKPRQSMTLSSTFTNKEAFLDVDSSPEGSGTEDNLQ
# SN12K1 = test: cells; assay type: functional; settings: Homo sapiens
# P388 = test: cells; assay type: functional; settings: Mus musculus
# P388/ADR = test: cells; assay type: functional; settings: Mus musculus
# [9] = blockers of HIV-1 ZM109 envelope-driven cell-cell fusion – HeLa effector, CEM target cells, luciferase, cherry-pick, dose response (AID 652058); assay type: functional, cell-based;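 also: luciferase signal from HIV-1 Env mediated cell-cell fusion of effector and target cells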
# Sequence of FAD-linked sulfhydryl oxidase ALR (P55789 whole entry): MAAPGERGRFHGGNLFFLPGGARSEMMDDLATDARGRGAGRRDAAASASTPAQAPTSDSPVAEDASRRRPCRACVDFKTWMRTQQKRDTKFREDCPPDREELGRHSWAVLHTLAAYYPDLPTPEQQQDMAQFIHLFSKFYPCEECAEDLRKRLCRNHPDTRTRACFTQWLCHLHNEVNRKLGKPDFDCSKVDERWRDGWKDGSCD
# Sequence of Fatty acid synthase (P49327 whole entry): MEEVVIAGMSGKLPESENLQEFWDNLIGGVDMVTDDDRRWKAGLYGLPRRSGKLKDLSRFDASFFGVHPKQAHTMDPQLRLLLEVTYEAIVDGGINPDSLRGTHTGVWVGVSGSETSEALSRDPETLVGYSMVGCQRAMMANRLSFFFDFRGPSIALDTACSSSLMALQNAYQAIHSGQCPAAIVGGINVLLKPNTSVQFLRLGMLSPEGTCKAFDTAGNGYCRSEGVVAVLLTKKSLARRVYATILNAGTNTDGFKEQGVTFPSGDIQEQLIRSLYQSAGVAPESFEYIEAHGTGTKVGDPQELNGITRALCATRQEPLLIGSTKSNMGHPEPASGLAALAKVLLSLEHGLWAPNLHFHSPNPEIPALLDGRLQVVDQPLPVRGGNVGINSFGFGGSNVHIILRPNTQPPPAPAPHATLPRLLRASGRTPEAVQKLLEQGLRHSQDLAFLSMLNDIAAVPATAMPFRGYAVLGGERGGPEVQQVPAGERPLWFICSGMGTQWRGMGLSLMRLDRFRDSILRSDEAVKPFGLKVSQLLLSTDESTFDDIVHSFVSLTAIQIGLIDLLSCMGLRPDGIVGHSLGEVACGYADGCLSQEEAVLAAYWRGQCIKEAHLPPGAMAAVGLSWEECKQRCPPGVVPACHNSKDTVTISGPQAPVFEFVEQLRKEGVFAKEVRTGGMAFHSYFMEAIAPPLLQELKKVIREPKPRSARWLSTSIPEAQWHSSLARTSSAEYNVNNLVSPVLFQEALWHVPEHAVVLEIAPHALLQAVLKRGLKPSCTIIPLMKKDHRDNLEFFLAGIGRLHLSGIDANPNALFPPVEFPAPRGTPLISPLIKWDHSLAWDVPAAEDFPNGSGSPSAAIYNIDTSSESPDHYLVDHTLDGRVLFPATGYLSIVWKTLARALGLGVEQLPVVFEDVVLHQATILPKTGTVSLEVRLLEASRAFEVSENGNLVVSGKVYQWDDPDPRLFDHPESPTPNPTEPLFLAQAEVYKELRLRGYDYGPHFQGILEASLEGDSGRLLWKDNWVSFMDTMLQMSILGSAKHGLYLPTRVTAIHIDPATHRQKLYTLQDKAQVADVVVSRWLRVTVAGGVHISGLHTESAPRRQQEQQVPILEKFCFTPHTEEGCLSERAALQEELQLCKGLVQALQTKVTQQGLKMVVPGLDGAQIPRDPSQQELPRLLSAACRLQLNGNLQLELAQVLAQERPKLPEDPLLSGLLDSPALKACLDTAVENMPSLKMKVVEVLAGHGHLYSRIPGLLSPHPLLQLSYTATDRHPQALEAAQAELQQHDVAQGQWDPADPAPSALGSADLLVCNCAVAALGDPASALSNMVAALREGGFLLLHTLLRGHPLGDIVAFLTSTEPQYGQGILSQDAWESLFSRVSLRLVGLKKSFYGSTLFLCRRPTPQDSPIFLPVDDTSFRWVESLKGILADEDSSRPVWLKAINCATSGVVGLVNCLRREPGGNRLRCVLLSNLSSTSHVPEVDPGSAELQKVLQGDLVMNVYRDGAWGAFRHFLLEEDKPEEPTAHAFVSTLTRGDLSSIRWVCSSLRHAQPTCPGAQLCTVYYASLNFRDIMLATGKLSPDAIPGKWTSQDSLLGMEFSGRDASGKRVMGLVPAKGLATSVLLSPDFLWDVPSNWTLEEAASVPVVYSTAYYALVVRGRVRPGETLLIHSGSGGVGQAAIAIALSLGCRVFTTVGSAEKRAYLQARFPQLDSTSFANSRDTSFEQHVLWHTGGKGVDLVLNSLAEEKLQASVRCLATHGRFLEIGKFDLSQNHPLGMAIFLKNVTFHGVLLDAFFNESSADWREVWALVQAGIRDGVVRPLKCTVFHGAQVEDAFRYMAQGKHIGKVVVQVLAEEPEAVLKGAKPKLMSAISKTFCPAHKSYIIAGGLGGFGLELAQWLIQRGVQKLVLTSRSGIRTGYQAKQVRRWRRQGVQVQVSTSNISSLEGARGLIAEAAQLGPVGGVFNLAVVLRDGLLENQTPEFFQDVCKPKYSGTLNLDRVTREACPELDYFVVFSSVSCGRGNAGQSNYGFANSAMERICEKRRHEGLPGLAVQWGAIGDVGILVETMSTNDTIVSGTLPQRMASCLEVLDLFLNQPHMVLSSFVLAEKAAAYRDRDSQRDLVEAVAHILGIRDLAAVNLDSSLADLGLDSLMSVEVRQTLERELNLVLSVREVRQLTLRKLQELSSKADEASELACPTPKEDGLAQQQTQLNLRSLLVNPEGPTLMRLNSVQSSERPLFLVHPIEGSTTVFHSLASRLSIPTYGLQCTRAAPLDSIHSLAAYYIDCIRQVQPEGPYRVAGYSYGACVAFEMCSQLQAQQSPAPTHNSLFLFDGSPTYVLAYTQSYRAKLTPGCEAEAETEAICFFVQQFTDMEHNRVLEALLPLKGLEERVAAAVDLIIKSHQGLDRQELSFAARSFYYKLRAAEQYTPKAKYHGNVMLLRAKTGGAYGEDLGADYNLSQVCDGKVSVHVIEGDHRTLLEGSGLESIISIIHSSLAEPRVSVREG
smiles,measurement,setting,value
CCCNC(=O)c1cc2c3ccccc3n(C)c2s1,AC50,[1],0.137 µM (active)
CN(C)c1ccc(C(=O)NNC(=O)c2ccc(Cl)cc2)cc1,IC50,[2],> 47.1 µM (inactive)
same,EC50,[3],> 53 µM (inactive)
CCOC(=O)C1(CCCc2ccccc2)CCN(Cc2cn(CC)nc2C)CC1,EC50,[4],0.119 µM (active)
COC(=O)C1=C(C(=O)c2ccccc2)C(c2ccc(O)c(OC)c2)n2nnnc2N1 (stereo not drawn),IC50,[2],> 47.1 µM (inactive)
same,EC50,[3],> 53 µM (inactive)
COc1ccc(/C=C/CN2CCCC(C(=O)c3ccc(OC)c(F)c3)C2)cc1 (stereo not drawn),EC50,[4],10.6 µM (active)
O=S(=O)(Nc1ccccc1O)c1ccc2[nH]c(O)nc2c1,AC50,[1],2.1 µM (active)
Cc1ccc(N2C(=O)CC(NNC(=O)c3cccc(S(=O)(=O)N4CCCC4)c3)C2=O)cc1 (stereo not drawn),AC50,[1],9.56 µM (active)
CN(C)S(=O)(=O)c1ccc(-c2csc(-c3cccnc3)n2)cc1,IC50,Fatty acid synthase,3.34 µM (active)
C=CCn1c(SCc2ccc(C(=O)O)cc2)nc2sc(C)c(C)c2c1=O,AC50,[1],4.74 µM (active)
COc1ccc2c(C)cc(SCn3nnc4ccccc4c3=O)nc2c1,IC50,[2],> 47.1 µM (inactive)
same,EC50,[3],> 53 µM (inactive)
Fc1ccc(OCCCCCn2ccnc2)cc1,IC50,[2],> 47.1 µM (inactive)
same,EC50,[5],1.67 µM (active)
same,EC50,[3],> 53 µM (inactive)
same,EC50,[6],> 60 µM (not active)
CCN1CCN(c2c(Cl)cccc2NC(=O)c2ccc([N+](=O)[O-])cc2)CC1,EC50,[4],0.421 µM (active)
CC(/C=C1\SC(=O)N(CCCC(=O)O)C1=O)=C\c1ccccc1,IC50,Leucine aminopeptidase,15.8 µM (active)
same,AC50,[7],2.36 µM (active)
same,AC50,[1],4.84 µM (active)
same,IC50,[8],12.6 µM (active)
O=C(Nc1ccc(Cl)cc1)N1CCC(c2nc(-c3cccs3)no2)CC1,EC50,[4],3.35 µM (active)
Cn1ccnc1SCc1cn2ccccc2n1,IC50,[2],> 47.1 µM (inactive)
same,EC50,[3],> 53 µM (inactive)
Cc1c(C)c(C)c(C(=O)CCc2cccc(NC(=O)CCC(=O)O)c2)c(C)c1C,AC50,[1],1.72 µM (active)
CNC(=O)OCc1nc(SC)n(C)c1CO,GI50,SN12K1,> 100 µM (inactive)
same,GI50,P388,> 100 µM (inactive)
same,GI50,P388/ADR,> 100 µM (inactive)
Cc1c(-c2cc3n(n2)C(c2cccs2)C(C#N)=C(c2ccccc2)N3)c(=O)n(-c2ccccc2)n1C (stereo not drawn),GI50,SN12K1,86.5 µM (inactive)
same,GI50,P388,42.1 µM (inactive)
same,GI50,P388/ADR,76.4 µM (inactive)
CC1=NN(C(=O)c2ccccc2)C(=O)C1/N=N/c1ccccc1C(=O)O (stereo not drawn),GI50,SN12K1,3.24 µM (inactive)
same,GI50,P388,9.51 µM (inactive)
same,GI50,P388/ADR,5.55 µM (inactive)
Cc1c2cc[n+](C)cc2c(COC2OC(CO)C(O)C2O)c2c3ccccc3n(C)c12 (stereo not drawn),GI50,SN12K1,58.2 µM (inactive)
same,GI50,P388,2.69 µM (inactive)
same,GI50,P388/ADR,> 100 µM (inactive)
CN(C)CCNC(=O)c1cccc2c1Nc1ccccc1S2,GI50,SN12K1,8.18 µM (inactive)
same,GI50,P388,2.25 µM (inactive)
same,GI50,P388/ADR,2.84 µM (inactive)
C[C@@H]1CN([C@H](C)CO)C(=O)c2cccc(NC(=O)c3cnccn3)c2O[C@H]1CN(C)Cc1ccccc1,AC50,[9],36.6 µM (active)
Cc1c2cc[n+]([O-])cc2c(C)c2c1[nH]c1ccccc12,GI50,SN12K1,3.38 µM (inactive)
same,GI50,P388,0.753 µM (active)
same,GI50,P388/ADR,4.45 µM (inactive)
OCC1OC(n2cnc3c2NC=NC[C@H]3O)CC1O (stereo partly drawn),GI50,SN12K1,405 µM (inactive)
same,GI50,P388,366 µM (inactive)
same,GI50,P388/ADR,291 µM (inactive)
